From patent US20160274087A1, “SCREENING ASSAY FOR AGENTS THAT INFLUENCE BETA CELL NUMBER AND/OR PHENOTYPE” (VRIJE UNIVERSITEIT BRUSSEL, priority 2013, published 2016)
Marks after values point to notes of the source that are not given here.

Tests used:
[1] = test system: beta cells; assay: Immunohistochemical analysis of Ki67 in pancreas after dexamethasone injection; assay type: in vivo, rat; settings: DEX 1 mg/Kg BW daily for 5 days; data not shown
[2] = Metabolic effects of in vivo dexamethasone administration
[3] = test system: selected gene targets in FACS-purified beta cells; assay: Q-PCR on FACS-purified beta cells from dexamethasone-injected rats; settings: 5 single injections DEX 1 mg/kg BW daily
From the text: Control rats were given vehicle (saline).
RNA was extracted using RNeasy columns (Qiagen), and quality was verified using an Agilent Bioanalyzer. Following removal of genomic DNA (TURBO DNA-free, Ambion) and reverse-transcription (High-Capacity cDNA Archive Kit, Applied Biosystems), gene targets were amplified on an ABI Prism 7700 using TaqMan Universal PCR Master Mix and TaqMan MGB probes (Applied Biosystems, assay IDs available on request). Expression levels of target genes were normalized to 4 housekeeping genes (β-actin, HPRT1, rplp2 and psmc5) (ΔCt) and expressed versus a control condition as calibrator (comparative ΔΔCt method).

[4] = test system: rat beta cells; assay: Beta cell DNA synthesis/proliferation by EdU (and BrdU) incorporation, incl. LOPAC screen; assay type: cell-based; settings: LOPAC screen at 1 μM, adult rat beta cells, EdU day 3 to 6
Experimental: (§1) On day 1, 9 and 15 of culture, total numbers of living beta cells per well were determined by semi-automatic cell count, after Hoechst 33342 (Ho) and propidium iodide (PI) staining. Numbers of living beta cells were obtained by subtracting the PI-positive cell numbers from the Ho-positive cell numbers, and correcting for the percent insulin-negative cells, as determined following insulin-immunofluorescence staining. They were expressed as percent of the numbers on day 1. Each condition was also evaluated for increases in the percentage of proliferating beta cells (incorporating the thymidine-analogue 5-ethynyl-2′-deoxyuridine, EdU; 100 μmol/l). To detect beta cells that underwent two successive cycles, cells were sequentially exposed to two different thymidine-analogs, first EdU from day 3 to 6, and then BrdU (100 μmol/l) from day 7 to 10, with a 24-hour label-free period in between. EdU-positive (EdU^+) nuclei were detected with the Click-iT Assay kit (Invitrogen), while BrdU-positive (BrdU^+) nuclei were identified with anti-BrdU antibody.
Freshly purified beta cells were cultured in control medium for 24 h prior to the addition of the LOPAC test compounds (day 1). The culture medium was refreshed on day 3 and the cells were then cultured further with 5-ethynyl-2′-deoxyuridine (EdU; 10 μM) up to day 6. Cell viability and percentage EdU incorporation were quantified after imaging and image analysis using the BD Pathway Bioimager, as described before (Assefa et al., 2014). To test the significance of compound effect on beta cell proliferation, average Z-score for each compound was calculated and a cut-off for potential positive hits was set at a Z-score of greater than three standard deviations. Thus, a compound is considered a hit only if it increases the percent EdU incorporation to above three standard deviation of the plate-averaged percent EdU incorporation.
Sorted beta cells were seeded in 384-well or 6-well plates coated with 804G matrix, and kept in culture for up to 15 days at 37° C. 5% CO2 using Ham F10 supplemented with 1 mM L-glutamine, 0.1 mg/ml streptomycin, 0.075 mg/ml penicillin, 50 μM of isobutyl-1-methylxanthine (IBMX) at 10 mM D-glucose with and without synthetic GCs (6 methyl-prednisolone (6MP), dexamethasone (DEX), GR-modulators (compound A (CPA), mifepristone (MIF), and NFκB inhibitors (JSH-23 en Bay11-7085). Total cell number and beta cell viability was evaluated after incubation with Hoechst 33342 and propidium iodide. All chemicals were from Sigma Life Sciences or Merck. Quantification of cell numbers and analysis of beta-cell viability was done using the Pathway Bioimager (BD Biosciences) and using IPlab and Attovision software for background subtraction as described prior (Assefa et al., 2014). Replicating beta cells were quantified after 24 or 72 hrs incubation with 5-ethynyl-2′-deoxyuridine (EdU, a thymidine analog) using the ClickIT EDU Alexa Fluor assay (Invitrogen). EdU-positive cells were expressed as percentage of total cell number.

[5] = test system: rat beta cells; assay: Beta cell viability / cell death (propidium iodide assay); assay type: cell-based; settings: LOPAC screen at 1 μM; adult rat beta cells; day 6; control medium 97
From the text: as §1, with “Numbers” for “On day 1, 9 and 15 of culture, total numbers of living beta cells per well were determined by semi-automatic cell count, after Hoechst 33342 (Ho) and propidium iodide (PI) staining. Numbers”, “Each condition was also evaluated for increases in the percentage of proliferating beta cells (incorporating the thymidine-analogue 5-ethynyl-2′-deoxyuridine, EdU; 100 μmol/l).” left out
Absolute number of cells was determined by whole-well imaging using the BD-PathwayBioimager855 (BD-Biosciences). IPLab and AttoVision software packages (BD-Biosciences) were used for image background subtraction, segmentation and quantification.
Freshly purified beta cells were cultured in control medium for 24 h prior to the addition of the LOPAC test compounds (day 1). The culture medium was refreshed on day 3 and the cells were then cultured further with 5-ethynyl-2′-deoxyuridine (EdU; 10 μM) up to day 6. […] Thus, a compound is considered a hit only if it increases the percent EdU incorporation to above three standard deviation of the plate-averaged percent EdU incorporation.

[6] = target: T1, glucocorticoid receptor (GR) (Homo sapiens, UniProt P04150); settings: cited from earlier work
T1 sequence (P04150 1-777): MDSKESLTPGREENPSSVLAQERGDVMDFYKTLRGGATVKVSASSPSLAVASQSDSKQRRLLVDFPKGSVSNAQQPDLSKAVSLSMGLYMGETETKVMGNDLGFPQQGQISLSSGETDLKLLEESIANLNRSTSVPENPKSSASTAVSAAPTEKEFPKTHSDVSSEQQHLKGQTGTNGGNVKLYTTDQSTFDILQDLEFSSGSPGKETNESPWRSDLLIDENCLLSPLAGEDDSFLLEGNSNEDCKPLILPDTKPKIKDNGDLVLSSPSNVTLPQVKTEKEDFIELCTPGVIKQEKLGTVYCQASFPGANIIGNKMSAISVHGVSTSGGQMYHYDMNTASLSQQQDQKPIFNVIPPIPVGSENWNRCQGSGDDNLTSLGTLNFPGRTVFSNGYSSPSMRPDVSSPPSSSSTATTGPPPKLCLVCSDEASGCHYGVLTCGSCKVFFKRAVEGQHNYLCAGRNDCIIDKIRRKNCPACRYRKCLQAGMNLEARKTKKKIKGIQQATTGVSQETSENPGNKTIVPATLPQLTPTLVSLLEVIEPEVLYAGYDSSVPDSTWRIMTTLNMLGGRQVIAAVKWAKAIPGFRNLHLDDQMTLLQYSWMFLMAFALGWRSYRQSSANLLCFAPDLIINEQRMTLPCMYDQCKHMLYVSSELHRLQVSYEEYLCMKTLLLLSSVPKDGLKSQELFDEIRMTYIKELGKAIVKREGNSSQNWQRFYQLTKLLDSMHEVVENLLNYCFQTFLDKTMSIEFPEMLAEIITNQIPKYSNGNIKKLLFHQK

In the case of `C[C@@H]1C[C@H]2[C@@H]3CCC4=CC(=O)C=C[C@]4(C)[C@@]3(F)[C@@H](O)C[C@]2(C)[C@@]1(O)C(=O)CO` [DEX, dexamethasone], the “increase of the percentage beta cells positive for Ki67” value [1] is reported as 3 fold, the “loss of body weight” value ([2]; DEX 1 mg/Kg BW daily for 5 consecutive days) is reported as 20% and the insulin content ([2]; DEX 1 mg/Kg BW daily for 5 days, MOCK 48 ± 7) is reported as 22 ± 3 ng/K beta cells. The “IPGT 90 min” value ([2]; DEX 1 mg/Kg BW daily for 5 days, MOCK 81 ± 3) was 278 ± 44 mg/dL, the “IPGT 120 min” value ([2]; DEX 1 mg/Kg BW daily for 5 days, MOCK 82 ± 2) was 227 ± 62 mg/dL and the “IPGT 60 min” value ([2]; DEX 1 mg/Kg BW daily for 5 days, MOCK 83 ± 5) was 375 ± 54 mg/dL. The Fasting glycemia ([2]; DEX 1 mg/Kg BW daily for 5 days, MOCK 85 ± 3) was 169 ± 77 mg/dL, the Islet insulin content ([2]; DEX 1 mg/Kg BW daily for 5 days, MOCK 100) was 37 ** ng/islet and the “IPGT 30 min” value ([2]; DEX 1 mg/Kg BW daily for 5 days, MOCK 180 ± 14) was 456 ± 41 mg/dL. The “IPGT 15 min” value ([2]; DEX 1 mg/Kg BW daily for 5 days, MOCK 360 ± 43) was 497 ± 16 mg/dL, the Serum insulin ([2]; DEX 1 mg/Kg BW daily for 5 days, MOCK 4927 ± 724) was 8447 ± 472 pg/mL and the “Body weight Day 6” value ([2]; DEX 1 mg/Kg BW daily i.p. for 5 days, MOCK 382 ± 13) was 304 ± 11 g. For the same compound, the “Body weight Day 0” value ([2]; DEX group before treatment, MOCK 356 ± 8) was 363 ± 13 g, the “Cyclin B1 mRNA level (ΔΔCt values relative to control, adult male)” value [3] was 6.5 ± 2.5 ^3 and the “Cyclin B2 mRNA level (ΔΔCt values relative to control, adult male)” value [3] was 10.8 ± 5.1 ^3. The “CyclinD1 mRNA level (ΔΔCt values relative to control, adult male)” value [3] was 0.9 ± 0.4 ^, the “DLK1 mRNA level (ΔΔCt values relative to control, adult male)” value [3] was 33.0 ± 19.1 ^3 and the “FKBP5 mRNA level (ΔΔCt values relative to control, adult male)” value [3] was 2.4 ± 0.2 ^. The “ICAM1 mRNA level (ΔΔCt values relative to control, adult male)” value [3] was 0.1 ± 0.1 ^3, the “MafA mRNA level (ΔΔCt values relative to control, adult male)” value [3] was 0.3 ± 0.1 ^ and the “MafB mRNA level (ΔΔCt values relative to control, adult male)” value [3] was 0.6 ± 0.2 ^. The “NPY mRNA level (ΔΔCt values relative to control, adult male)” value [3] was 3.3 ± 0.5 ^3, the “NR3C1 mRNA level (ΔΔCt values relative to control, adult male)” value [3] was 0.5 ± 0.1 ^2 and the “Pdx1 mRNA level (ΔΔCt values relative to control, adult male)” value [3] was 0.4 ± 0.2 ^.

In the case of `C[C@]12C=CC(=O)C=C1CC[C@H]1[C@@H]3C[C@@H](O)[C@](O)(C(=O)CO)[C@@]3(C)C[C@H](O)[C@@]12F` [Triamcinolone], the “Percent EdU+ cells” value ([4]; control medium 5.6) is reported as 31.1%, the Z-Score ([4]; hit cut-off three standard deviations) is reported as 5.9 and the Percent viable cells [5] is reported as 99%. For the same compound, the “Relative Potencies GR” value [6] was 5.
